From PMC2394453 (British Journal of Cancer, 2003)

Experiment: Plasma pharmacokinetics of simvastatin and simvastatin hydroxy acid after oral simvastatin alone and combined with imatinib in CML patients (LC/MS/MS)
Conditions: for t1/2: simvastatin in plasma, mean±s.d., in h

SMILES: CCC(C)(C)C(=O)O[C@H]1C[C@@H](C)C=C2C=C[C@H](C)[C@H](CC[C@@H]3C[C@@H](O)CC(=O)O3)[C@H]21 [Simvastatin]
- Tmax (both, human, plasma, po, 40 mg): 1 h
- Vd/F (both, human, plasma, po, 40 mg): 3120 ± 2750 L
- half-life (both, human, plasma, po, 40 mg): 1.4 h
- mean reduction of total-body clearance from plasma (CL/F) (simvastatin 40 mg coadministered with imatinib 400 mg, P<0.001): 70%
- t1/2 (40 mg simvastatin oral alone (day 1)): 1.4±0.8
- t1/2 (40 mg simvastatin oral plus 400 mg imatinib oral (day 8)): 2.7±1.3
